Assay results as given in ChEMBL document CHEMBL3421625, “Discovery and optimization of novel antagonists to the human neurokinin-3 receptor for the treatment of sex-hormone disorders (Part I)” (J Med Chem, 2015).
≈ marks a conversion by molar mass, not a printed value.

How the values were obtained:
Neuromedin-K receptor [1] = target: T1, Neuromedin-K receptor (Homo sapiens, UniProt P29371); assay: biochemical
T1 sequence (P29371 whole entry): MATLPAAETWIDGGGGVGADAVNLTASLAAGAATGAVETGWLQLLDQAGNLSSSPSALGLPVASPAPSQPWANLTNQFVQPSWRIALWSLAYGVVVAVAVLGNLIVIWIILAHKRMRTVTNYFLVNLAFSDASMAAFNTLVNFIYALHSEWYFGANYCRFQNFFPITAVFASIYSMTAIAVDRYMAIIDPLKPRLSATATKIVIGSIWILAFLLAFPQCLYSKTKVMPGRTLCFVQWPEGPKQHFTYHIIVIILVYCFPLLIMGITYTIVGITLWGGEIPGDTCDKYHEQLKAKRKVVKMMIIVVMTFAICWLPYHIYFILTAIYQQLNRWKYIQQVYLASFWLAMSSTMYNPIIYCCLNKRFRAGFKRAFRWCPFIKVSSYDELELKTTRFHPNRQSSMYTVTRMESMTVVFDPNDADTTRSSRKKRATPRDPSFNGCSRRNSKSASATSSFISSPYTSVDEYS
Description: Displacement of [3H]-SB222200 from recombinant human NK3R expressed in CHO cell membranes after 90 mins by scintillation counting analysis

Neuromedin-K receptor [2] = target: T1, Neuromedin-K receptor
[3] = Solubility of the compound in PBS buffer at pH 7.4 by shake-flask method; type: physicochemical
Cytochrome P450 3A4 = Cytochrome P450 3A4 (Homo sapiens, UniProt P08684); assay: Inhibition of CYP3A4 (unknown origin) by luciferase reporter assay in presence of NADPH regeneration system; type: ADME
Cytochrome P450 1A2 = target: T2, Cytochrome P450 1A2 (Homo sapiens, UniProt P05177); assay: Inhibition of CYP1A2 (unknown origin) by luciferase reporter assay in presence of NADPH regeneration system; type: ADME
T2 sequence (P05177 whole entry): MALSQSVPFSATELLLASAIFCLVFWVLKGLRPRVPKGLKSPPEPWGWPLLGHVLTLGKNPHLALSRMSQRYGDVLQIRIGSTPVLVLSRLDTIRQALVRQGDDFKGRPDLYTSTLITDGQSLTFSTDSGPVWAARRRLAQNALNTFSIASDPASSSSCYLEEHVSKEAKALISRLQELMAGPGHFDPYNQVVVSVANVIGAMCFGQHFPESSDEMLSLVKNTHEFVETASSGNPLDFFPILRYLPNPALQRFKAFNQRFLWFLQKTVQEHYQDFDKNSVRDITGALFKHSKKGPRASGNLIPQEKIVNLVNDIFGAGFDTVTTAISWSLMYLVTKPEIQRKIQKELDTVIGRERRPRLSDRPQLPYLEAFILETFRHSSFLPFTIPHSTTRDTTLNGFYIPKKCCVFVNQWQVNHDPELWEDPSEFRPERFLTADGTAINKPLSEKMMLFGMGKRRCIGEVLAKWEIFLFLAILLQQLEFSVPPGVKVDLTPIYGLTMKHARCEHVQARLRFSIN

Cytochrome P450 2C19 = Cytochrome P450 2C19 (Homo sapiens, UniProt P33261); assay: Inhibition of CYP2C19 (unknown origin) by luciferase reporter assay in presence of NADPH regeneration system
Cytochrome P450 2C9 = Cytochrome P450 2C9 (Homo sapiens, UniProt P11712); assay: Inhibition of CYP2C9 (unknown origin) by luciferase reporter assay in presence of NADPH regeneration system; type: ADME
[4] = Lipophilicity, log D of the compound at pH 7.4; type: physicochemical; settings: buffer, read-out: logD
Cytochrome P450 2D6 = Cytochrome P450 2D6 (Homo sapiens, UniProt P10635); assay: Inhibition of CYP2D6 (unknown origin) by luciferase reporter assay in presence of NADPH regeneration system; type: ADME
Cytochrome P450 2D6, sequence (P10635 whole entry): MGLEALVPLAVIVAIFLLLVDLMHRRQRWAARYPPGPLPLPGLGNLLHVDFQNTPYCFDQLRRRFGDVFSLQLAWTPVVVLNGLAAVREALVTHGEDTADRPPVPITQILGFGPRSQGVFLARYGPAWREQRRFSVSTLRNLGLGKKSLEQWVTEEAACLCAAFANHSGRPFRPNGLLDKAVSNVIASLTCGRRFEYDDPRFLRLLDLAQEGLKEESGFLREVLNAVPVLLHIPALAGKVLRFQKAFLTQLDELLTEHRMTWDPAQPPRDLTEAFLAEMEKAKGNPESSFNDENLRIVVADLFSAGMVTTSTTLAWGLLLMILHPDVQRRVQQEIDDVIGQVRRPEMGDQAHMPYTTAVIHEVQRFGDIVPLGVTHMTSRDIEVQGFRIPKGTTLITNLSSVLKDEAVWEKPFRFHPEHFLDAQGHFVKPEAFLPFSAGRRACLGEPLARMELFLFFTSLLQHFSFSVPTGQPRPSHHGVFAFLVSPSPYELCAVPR

Cytochrome P450 2C19, sequence (P33261 whole entry): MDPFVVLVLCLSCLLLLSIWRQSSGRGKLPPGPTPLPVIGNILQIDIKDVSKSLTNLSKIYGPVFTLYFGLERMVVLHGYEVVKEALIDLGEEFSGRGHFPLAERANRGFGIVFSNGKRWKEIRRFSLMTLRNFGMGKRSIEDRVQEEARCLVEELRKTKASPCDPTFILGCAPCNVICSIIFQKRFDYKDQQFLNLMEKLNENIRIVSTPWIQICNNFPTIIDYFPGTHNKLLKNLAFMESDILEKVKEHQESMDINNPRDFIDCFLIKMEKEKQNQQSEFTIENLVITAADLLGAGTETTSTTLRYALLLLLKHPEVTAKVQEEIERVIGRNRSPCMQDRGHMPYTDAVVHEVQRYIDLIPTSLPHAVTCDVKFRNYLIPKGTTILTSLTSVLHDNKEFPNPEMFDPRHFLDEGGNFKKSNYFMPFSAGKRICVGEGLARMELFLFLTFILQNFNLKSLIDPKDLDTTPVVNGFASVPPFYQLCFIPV
Cytochrome P450 3A4, sequence (P08684 whole entry): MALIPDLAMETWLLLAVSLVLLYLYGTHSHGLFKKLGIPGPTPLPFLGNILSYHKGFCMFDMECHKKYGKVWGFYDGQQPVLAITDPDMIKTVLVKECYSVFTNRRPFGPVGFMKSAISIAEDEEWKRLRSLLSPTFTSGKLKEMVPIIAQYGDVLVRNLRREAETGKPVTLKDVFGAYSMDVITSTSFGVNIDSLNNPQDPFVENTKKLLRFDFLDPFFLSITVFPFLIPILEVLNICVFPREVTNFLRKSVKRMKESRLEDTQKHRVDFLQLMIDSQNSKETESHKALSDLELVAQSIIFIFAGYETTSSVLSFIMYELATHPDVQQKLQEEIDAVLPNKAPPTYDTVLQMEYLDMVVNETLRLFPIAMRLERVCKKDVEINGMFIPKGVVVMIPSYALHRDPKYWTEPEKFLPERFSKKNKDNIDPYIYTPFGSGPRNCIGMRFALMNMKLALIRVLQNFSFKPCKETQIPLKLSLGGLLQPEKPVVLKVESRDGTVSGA
Cytochrome P450 2C9, sequence (P11712 whole entry): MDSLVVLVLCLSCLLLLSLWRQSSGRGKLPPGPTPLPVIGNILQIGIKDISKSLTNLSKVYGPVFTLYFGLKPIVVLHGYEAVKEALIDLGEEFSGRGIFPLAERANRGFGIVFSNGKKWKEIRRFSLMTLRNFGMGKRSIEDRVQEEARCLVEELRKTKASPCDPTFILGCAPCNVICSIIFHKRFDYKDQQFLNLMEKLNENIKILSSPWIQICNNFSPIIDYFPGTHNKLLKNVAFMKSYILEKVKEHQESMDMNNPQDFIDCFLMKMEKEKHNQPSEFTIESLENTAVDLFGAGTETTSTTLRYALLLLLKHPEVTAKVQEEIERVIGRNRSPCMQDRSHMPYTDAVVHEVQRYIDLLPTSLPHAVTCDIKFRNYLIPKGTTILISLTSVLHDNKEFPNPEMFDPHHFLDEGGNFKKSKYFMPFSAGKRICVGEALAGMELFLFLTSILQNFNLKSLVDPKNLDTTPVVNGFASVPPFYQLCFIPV

Row | Compound | Ki (Neuromedin-K receptor [1]) | IC50 (Neuromedin-K receptor [2]) | solubility thermodynamic [3] | IC50 (Cytochrome P450 3A4) | IC50 (Cytochrome P450 1A2) | IC50 (Cytochrome P450 2C19) | IC50 (Cytochrome P450 2C9) | logD [4] | IC50 (Cytochrome P450 2D6)
1 | C[C@H]1c2nnc(-c3ccccn3)n2CCN1C(=O)c1ccc(F)cc1 | 7.94 µM | 7.94 µM | ≥ 200 µM | – | – | – | – | – | –
2 | CC(C)c1nc(-c2nnc3n2CCN(C(=O)c2ccc(-c4cccs4)cc2)[C@@H]3C)cs1 | 0.00251 µM | 0.00398 µM | 25 µM (≈ 11.2 µg/mL) | 35 µM | 17 µM | 12 µM | 4 µM | 4.4 | 27 µM
3 | O=C(c1ccc(-c2ccccc2)cc1)N1CCn2c(nnc2-c2ccccn2)C1 | 1.26 µM | 1.58 µM | 28 µM (≈ 10.7 µg/mL) | – | – | – | – | – | –
4 | Cc1ccc(-c2ccc(C(=O)N3CCn4c(nnc4-c4ccccn4)C3)cc2)o1 | 15.8 µM | 10 µM | 71 µM (≈ 27.4 µg/mL) | – | – | – | – | – | –
5 | O=C(c1ccc(-c2ccc(Cl)cc2)cc1)N1CCn2c(nnc2-c2ccccn2)C1 | 5.01 µM | 3.98 µM | 5.3 µM (≈ 2.2 µg/mL) | – | – | – | – | – | –
6 | COc1ccc(C(=O)N2CCn3c(nnc3-c3ccccn3)C2)cc1 | > 31.6 µM | > 31.6 µM | 194 µM (≈ 65.1 µg/mL) | – | – | – | – | – | –
7 | Cc1cccnc1-c1nnc2n1CCN(C(=O)c1ccc(F)cc1)C2 | > 31.6 µM | > 31.6 µM | ≥ 200 µM | – | – | – | – | – | –
8 | Cc1nc(-c2nnc3n2CCN(C(=O)c2ccc(-c4cccs4)cc2)[C@H]3C)cs1 | – | – | – | – | – | – | – | 3.1 | –
9 | Cc1cccc(-c2nnc3n2CCN(C(=O)c2ccc(F)cc2)[C@@H]3C)n1 | 0.0631 µM | 0.0794 µM | 197 µM (≈ 69.2 µg/mL) | – | – | – | – | 1.6 | –
10 | Cc1ccc(-c2nnc3n2CCN(C(=O)c2ccc(F)cc2)C3)nc1 | 1.58 µM | 2.51 µM | ≥ 200 µM | – | – | – | – | – | –
11 | O=C(c1ccc(F)cc1)N1CCn2c(nnc2-c2cccc(C(F)(F)F)n2)C1 | 0.398 µM | 0.398 µM | 193 µM (≈ 75.5 µg/mL) | > 100 µM | 21 µM | > 100 µM | > 100 µM | – | > 100 µM
12 | O=C(c1ccc(Cc2ccccc2)cc1)N1CCn2c(nnc2-c2ccccn2)C1 | > 31.6 µM | > 31.6 µM | 169 µM (≈ 66.8 µg/mL) | – | – | – | – | – | –
13 | C[C@@H]1c2nnc(-c3csc(C(F)(F)F)n3)n2CCN1C(=O)c1ccc(-c2cccs2)cc1 | 0.0794 µM | 0.0631 µM | 11 µM (≈ 5.23 µg/mL) | > 100 µM | 8 µM | 18 µM | 5 µM | 4.1 | > 100 µM
14 | COc1ccc(-c2ccc(C(=O)N3CCn4c(nnc4-c4ccccn4)C3)cc2)cc1 | > 31.6 µM | > 31.6 µM | 6.4 µM (≈ 2.63 µg/mL) | – | – | – | – | – | –
15 | Cc1cncc(-c2nnc3n2CCN(C(=O)c2ccc(-c4cccs4)cc2)[C@@H]3C)n1 | 0.0126 µM | 0.02 µM | 160 µM (≈ 66.6 µg/mL) | 2 µM | 50 µM | 39 µM | 17 µM | 2.7 | > 100 µM
16 | C[C@@H]1c2nnc(-c3csc(-c4ccccc4)n3)n2CCN1C(=O)c1ccc(F)cc1 | 0.0251 µM | 0.0158 µM | 179 µM (≈ 75.1 µg/mL) | 67 µM | 25 µM | 19 µM | 19 µM | 3.4 | 54 µM
17 | Cc1cccc(-c2nnc3n2CCN(C(=O)c2ccc(-c4cccs4)cc2)[C@@H]3C)n1 | – | 0.01 µM | 110 µM (≈ 45.7 µg/mL) | 45 µM | 57 µM | 26 µM | 18 µM | 3.4 | 86 µM
18 | Cc1nc(-c2nnc3n2CCN(C(=O)c2ccc(F)cc2)[C@@H]3C)cs1 | – | – | ≥ 200 µM | 63 µM | > 100 µM | 44 µM | 56 µM | 1.3 | > 100 µM

The next lines start with the values.

Row | Ki (Neuromedin-K receptor [1]) | IC50 (Neuromedin-K receptor [2]) | solubility thermodynamic [3] | IC50 (Cytochrome P450 3A4) | IC50 (Cytochrome P450 1A2) | IC50 (Cytochrome P450 2C19) | IC50 (Cytochrome P450 2C9) | logD [4] | IC50 (Cytochrome P450 2D6) | Compound
19 | 2 µM | 1.58 µM | 10 µM (≈ 3.99 µg/mL) | – | – | – | – | – | – | O=C(c1ccc(-c2ccc(F)cc2)cc1)N1CCn2c(nnc2-c2ccccn2)C1
20 | > 31.6 µM | > 31.6 µM | ≥ 200 µM | – | – | – | – | – | – | O=C(c1ccccc1F)N1CCn2c(nnc2-c2ccccn2)C1
21 | 0.00631 µM | – | 50 µM (≈ 21.1 µg/mL) | 11 µM | 8 µM | 18 µM | 8 µM | 2.9 | 42 µM | Cc1csc(-c2nnc3n2CCN(C(=O)c2ccc(-c4cccs4)cc2)[C@@H]3C)n1
22 | 5.01 µM | 6.31 µM | 199 µM (≈ 64.3 µg/mL) | – | – | – | – | – | – | O=C(c1cccc(F)c1)N1CCn2c(nnc2-c2ccccn2)C1
23 | 0.501 µM | 0.631 µM | 12 µM (≈ 4.65 µg/mL) | – | – | – | – | – | – | O=C(c1ccc(-c2cccs2)cc1)N1CCn2c(nnc2-c2ccccn2)C1
24 | 0.794 µM | 0.794 µM | ≥ 200 µM | – | – | – | – | – | – | C[C@@H]1c2nnc(-c3ccccn3)n2CCN1C(=O)c1ccc(F)cc1
25 | > 31.6 µM | > 31.6 µM | ≥ 200 µM | – | – | – | – | – | – | COc1ccccc1C(=O)N1CCn2c(nnc2-c2ccccn2)C1
26 | 6.31 µM | 6.31 µM | ≥ 200 µM | – | – | – | – | – | – | Cc1ccnc(-c2nnc3n2CCN(C(=O)c2ccc(F)cc2)C3)c1
27 | > 31.6 µM | > 31.6 µM | 196 µM (≈ 65.7 µg/mL) | – | – | – | – | – | – | COc1cccc(C(=O)N2CCn3c(nnc3-c3ccccn3)C2)c1
28 | 1.58 µM | 1.58 µM | 1.4 µM (≈ 0.568 µg/mL) | – | – | – | – | – | – | O=C(c1cc(-c2ccc(Cl)cc2)n[nH]1)N1CCn2c(nnc2-c2ccccn2)C1
29 | 0.501 µM | 0.501 µM | ≥ 200 µM | > 100 µM | 69 µM | 48 µM | > 100 µM | 1.4 | > 100 µM | Cc1cccc(-c2nnc3n2CCN(C(=O)c2ccc(F)cc2)C3)n1
